US20220356174A1, “PYRIDIN-2-ONE COMPOUNDS USEFUL AS SMARCA2 ANTAGONISTS” (Epizyme, Inc., priority 2018, published 2022)
Like-named read-outs stand apart in the source and are kept apart here.

Tests used:
[1] = target: T1, FL-SMARCA2 (full-length human SMARCA2 isoform 1) (Homo sapiens, UniProt P51531); assay: SMARCA2 ATPase activity assay (ADP-Glo, chicken mononucleosome substrate); assay type: biochemical; conditions: ATP 250 uM
T1 construct: FLAG tag (YKDDDDK) (C); made in house; host or cells: Sf21 insect cells (baculovirus, pFastBacI)
Source text: Molecular Biology: Full-length human SMARCA2 isoform 1 (P51531) transcript clone was amplified from a cDNA library incorporating an N-terminal HIS tag ([…]) fused directly to Ser2 of SMARCA2 and a C-FLAG tag (YKDDDDK) fused directly to Glu1590 of SMARCA2. The amplified gene was subcloned into pFastBacI (Life Technologies).
Protein Expression: Recombinant baculovirus were generated and protein over-expression was accomplished by infecting exponentially growing Sf21 insect cell culture at 1.24×10^6 cell/ml with an MOI of 0.1. Infections were carried out for 76 hours, harvested by centrifugation, and stored at −80° C. for purification.
Expressed full-length SMARCA2 was purified from cell paste by FLAG affinity chromatography followed by anion exchange chromatography. The protein was dialyzed into a storage buffer containing 25 mM HEPES, 300 mM KCl, 10% Glycerol, pH 7.9, 1 mM TCEP and 0.01% Tween-20. The purity of the protein was measured as 74% using micro-capillary based gel electrophoresis.

FL-SMARCA4 = FL-SMARCA4 (Homo sapiens, UniProt P51532); assay: SMARCA4 ATPase activity assay (ADP-Glo, chicken mononucleosome substrate)
[2] = Table 3.1, ATPase assay, enzyme 5 nM, chicken mononucleosome 10 nM, 30 min preincubation
[3] = FL-SMARCA4 IC50, Table 3.2, ATPase assay, enzyme 5 nM, ATP 250 uM, chicken mononucleosome 10 nM, 30 min preincubation
[4] = Table 3d.1, ATPase assay, enzyme 5 nM, chicken mononucleosome 10 nM, 30 min preincubation, read-out: FL-SMARCA2 IC>50
[5] = Table 3a.1, SMARCA2 5 nM, mononucleosome 10 nM
[6] = FL-SMARCA4 IC50, Table 3a.2, SMARCA4 5 nM, ATP 250 uM, mononucleosome 10 nM
[7] = Table 3c.1, ATPase assay, enzyme 5 nM, chicken mononucleosome 10 nM, 30 min preincubation
[8] = FL-SMARCA4 IC>50, Table 3c.2, ATPase assay, enzyme 5 nM, ATP 250 uM, chicken mononucleosome 10 nM, 30 min preincubation

FL-SMARCA4, sequence (P51532 whole entry): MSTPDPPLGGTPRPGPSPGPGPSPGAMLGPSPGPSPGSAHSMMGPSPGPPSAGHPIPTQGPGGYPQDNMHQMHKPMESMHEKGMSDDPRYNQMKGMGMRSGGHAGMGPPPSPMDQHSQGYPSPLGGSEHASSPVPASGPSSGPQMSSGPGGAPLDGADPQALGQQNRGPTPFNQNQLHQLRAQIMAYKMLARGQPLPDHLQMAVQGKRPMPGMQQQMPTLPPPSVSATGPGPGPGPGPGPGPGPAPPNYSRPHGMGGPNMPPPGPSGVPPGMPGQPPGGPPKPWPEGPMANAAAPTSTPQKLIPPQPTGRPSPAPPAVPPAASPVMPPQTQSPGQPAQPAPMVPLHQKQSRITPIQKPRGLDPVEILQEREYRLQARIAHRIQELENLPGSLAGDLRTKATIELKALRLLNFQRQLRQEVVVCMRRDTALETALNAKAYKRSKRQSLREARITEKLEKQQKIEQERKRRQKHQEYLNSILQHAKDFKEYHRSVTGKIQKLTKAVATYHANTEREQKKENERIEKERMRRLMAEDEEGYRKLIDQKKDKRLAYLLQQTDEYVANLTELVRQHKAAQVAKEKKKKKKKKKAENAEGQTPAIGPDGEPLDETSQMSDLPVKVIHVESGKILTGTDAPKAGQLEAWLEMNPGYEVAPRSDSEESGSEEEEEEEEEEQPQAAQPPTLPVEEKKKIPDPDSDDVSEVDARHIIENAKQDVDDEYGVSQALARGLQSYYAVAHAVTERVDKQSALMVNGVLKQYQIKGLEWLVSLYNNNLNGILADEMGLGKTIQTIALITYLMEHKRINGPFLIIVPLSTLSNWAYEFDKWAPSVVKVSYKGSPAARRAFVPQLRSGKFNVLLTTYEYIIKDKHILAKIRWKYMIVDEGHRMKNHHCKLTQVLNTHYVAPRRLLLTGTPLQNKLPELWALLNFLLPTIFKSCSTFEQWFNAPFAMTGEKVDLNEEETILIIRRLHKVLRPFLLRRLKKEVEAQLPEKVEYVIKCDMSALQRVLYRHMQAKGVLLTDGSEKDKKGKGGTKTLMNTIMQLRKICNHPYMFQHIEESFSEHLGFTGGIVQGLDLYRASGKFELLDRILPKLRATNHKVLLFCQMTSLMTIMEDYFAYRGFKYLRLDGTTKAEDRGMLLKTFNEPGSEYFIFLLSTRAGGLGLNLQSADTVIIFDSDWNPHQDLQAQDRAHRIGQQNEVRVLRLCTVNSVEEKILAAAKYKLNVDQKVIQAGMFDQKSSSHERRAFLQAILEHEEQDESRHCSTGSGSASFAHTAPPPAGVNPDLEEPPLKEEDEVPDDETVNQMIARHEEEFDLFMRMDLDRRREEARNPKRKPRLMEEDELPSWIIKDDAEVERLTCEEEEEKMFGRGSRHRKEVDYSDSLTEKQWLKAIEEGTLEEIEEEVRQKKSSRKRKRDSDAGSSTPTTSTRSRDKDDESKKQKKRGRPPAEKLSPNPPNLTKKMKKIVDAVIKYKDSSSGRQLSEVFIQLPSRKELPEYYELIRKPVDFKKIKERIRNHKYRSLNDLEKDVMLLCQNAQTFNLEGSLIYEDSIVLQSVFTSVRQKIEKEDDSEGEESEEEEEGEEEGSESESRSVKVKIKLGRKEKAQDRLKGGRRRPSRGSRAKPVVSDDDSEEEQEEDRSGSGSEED
T1 sequence (P51531 with tags, fused parts or gaps): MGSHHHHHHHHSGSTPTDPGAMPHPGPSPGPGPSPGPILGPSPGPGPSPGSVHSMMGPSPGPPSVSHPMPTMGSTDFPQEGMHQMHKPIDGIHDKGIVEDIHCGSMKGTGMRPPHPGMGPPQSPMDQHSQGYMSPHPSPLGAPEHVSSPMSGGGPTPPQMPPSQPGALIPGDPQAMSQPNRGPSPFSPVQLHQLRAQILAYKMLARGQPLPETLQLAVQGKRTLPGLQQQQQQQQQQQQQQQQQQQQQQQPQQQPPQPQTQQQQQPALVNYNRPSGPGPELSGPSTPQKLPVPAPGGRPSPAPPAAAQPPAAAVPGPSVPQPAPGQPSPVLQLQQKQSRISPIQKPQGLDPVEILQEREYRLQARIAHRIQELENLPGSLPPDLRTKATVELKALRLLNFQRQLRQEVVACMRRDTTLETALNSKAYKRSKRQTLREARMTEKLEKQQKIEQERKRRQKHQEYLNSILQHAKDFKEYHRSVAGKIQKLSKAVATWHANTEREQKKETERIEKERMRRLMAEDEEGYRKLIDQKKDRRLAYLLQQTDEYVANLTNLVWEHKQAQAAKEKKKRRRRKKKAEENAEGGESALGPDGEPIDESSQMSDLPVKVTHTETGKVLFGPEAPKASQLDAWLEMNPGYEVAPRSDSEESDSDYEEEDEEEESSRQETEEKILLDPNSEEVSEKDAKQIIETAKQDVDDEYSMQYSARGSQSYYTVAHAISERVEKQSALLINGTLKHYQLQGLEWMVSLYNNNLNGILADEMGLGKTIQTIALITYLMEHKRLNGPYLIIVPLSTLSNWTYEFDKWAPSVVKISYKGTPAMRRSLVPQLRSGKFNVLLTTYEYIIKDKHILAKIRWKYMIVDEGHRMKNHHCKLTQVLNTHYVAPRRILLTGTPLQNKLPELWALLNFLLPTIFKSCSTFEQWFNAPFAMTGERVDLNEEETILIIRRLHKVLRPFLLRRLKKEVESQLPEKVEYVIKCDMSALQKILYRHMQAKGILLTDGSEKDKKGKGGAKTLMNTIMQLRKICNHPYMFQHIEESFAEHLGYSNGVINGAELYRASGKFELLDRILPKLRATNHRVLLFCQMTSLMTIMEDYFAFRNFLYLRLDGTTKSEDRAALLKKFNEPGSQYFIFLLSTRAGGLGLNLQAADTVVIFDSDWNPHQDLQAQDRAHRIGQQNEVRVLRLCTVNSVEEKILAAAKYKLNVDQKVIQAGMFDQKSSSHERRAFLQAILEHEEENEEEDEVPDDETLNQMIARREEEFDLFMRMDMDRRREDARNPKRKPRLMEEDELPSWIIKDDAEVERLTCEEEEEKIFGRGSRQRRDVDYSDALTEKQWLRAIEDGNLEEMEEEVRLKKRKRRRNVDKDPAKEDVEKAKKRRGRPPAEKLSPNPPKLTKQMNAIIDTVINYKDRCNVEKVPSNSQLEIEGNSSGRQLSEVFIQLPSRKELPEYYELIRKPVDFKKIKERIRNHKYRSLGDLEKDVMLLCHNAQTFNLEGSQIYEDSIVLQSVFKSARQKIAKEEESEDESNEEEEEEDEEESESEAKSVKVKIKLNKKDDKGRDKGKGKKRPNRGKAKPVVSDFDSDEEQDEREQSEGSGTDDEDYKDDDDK

`O=C(Nc1cc(F)c(=O)n(CCF)c1)c1cc(Cl)c(Cl)[nH]1` [Compound 159] gave an IC50 [1, 2] of 0.194 µM and an IC50 (FL-SMARCA4; [3]) of 0.759 µM.

In the case of `CCn1cc(NC(=O)c2cc(Cl)ns2)ccc1=O` [Compound 107], the IC50 [1, 2] is reported as 36.7 µM and the IC50 (FL-SMARCA4; [3]) is reported as over 50 µM.

In the case of `CNc1ncc(C(=O)Nc2cc(F)c(=O)n(CCF)c2)s1` [Compound 228], the IC50 [1, 2] is reported as over 50 µM and the IC50 (FL-SMARCA4; [3]) is reported as over 50 µM.

With `CCc1c(NC(=O)c2cc(Cl)c(Cl)s2)ccc(=O)n1CC` [Compound 30d] the IC50 [1, 4] was over 50 µM and the IC50 (FL-SMARCA4; FL-SMARCA4 IC50) was over 50 µM.

In the case of `CCn1cc(NC(=O)c2[nH]c3ccccc3c2C)ccc1=O` [Compound 18a], the IC50 [1, 5] is reported as over 50 µM and the IC50 (FL-SMARCA4; [6]) is reported as over 50 µM.

Work on `Cn1nccc1-c1cc(NC(=O)c2cc(Cl)c(C(F)(F)F)s2)cn(CC(F)F)c1=O` [Compound 13c] yielded an IC50 [1, 7] of over 50 µM and an IC50 (FL-SMARCA4; [8]) of over 50 µM.

Work on `CCCn1c(C(=O)Nc2ccc(=O)n(CC)c2)cc(Cl)c1Cl` [Compound 59] yielded an IC50 [1, 2] of over 50 µM and an IC50 (FL-SMARCA4; [3]) of over 50 µM.

`CCn1cc(NC(=O)c2cc(Cl)c(Cl)s2)cc(OC)c1=O` [Compound 110] showed an IC50 [1, 2] of over 50 µM and an IC50 (FL-SMARCA4; [3]) of over 50 µM.

In the case of `CN(C)CCCNc1cc(NC(=O)c2cc(Cl)c(Cl)s2)cn(CCF)c1=O` [Compound 262], the IC50 [1, 2] is reported as 15.3 µM and the IC50 (FL-SMARCA4; [3]) is reported as 25.9 µM.

`CN1CC(C(=O)Nc2cc(F)c(=O)n(CCF)c2)CC1=O` (centres unmarked) [Compound 51a] showed an IC50 [1, 5] of over 50 µM and an IC50 (FL-SMARCA4; [6]) of over 50 µM.

`CCn1cc(NC(=O)c2cc(Cl)c(C)s2)ccc1=O` [Compound 73] gave an IC50 [1, 2] of 11.5 µM and an IC50 (FL-SMARCA4; [3]) of 35.6 µM.

`CCn1cc(NC(=O)c2ccn(C)n2)ccc1=O` [Compound 93] gave an IC50 [1, 2] of over 50 µM and an IC50 (FL-SMARCA4; [3]) of over 50 µM.

Compound `CCn1cc(NC(=O)c2cccc(Cl)n2)ccc1=O` [Compound 25a] has an IC50 [1, 5] of over 50 µM and an IC50 (FL-SMARCA4; [6]) of over 50 µM.

`Cc1cc(C)n(-c2ccc(C(=O)Nc3cn(C)c(=O)cc3C)cn2)n1` [Compound 2d] was tested, and the IC50 [1, 4] was over 50 µM and the IC50 (FL-SMARCA4; FL-SMARCA4 IC50) was over 50 µM.

`Cc1cc(NC(=O)c2cc(Cl)c(Cl)s2)cn(C)c1=O` [Compound 177] gave an IC50 [1, 2] of over 50 µM and an IC50 (FL-SMARCA4; [3]) of over 50 µM.

`Cn1cc(NC(=O)C(C)(C)Oc2ccc(C#N)cc2)cc(Cl)c1=O` [Compound 3d] gave an IC50 [1, 4] of over 50 µM and an IC50 (FL-SMARCA4; FL-SMARCA4 IC50) of over 50 µM.

For `COc1ccc2[nH]c(C(=O)Nc3c[nH]c(=O)c(C)c3)cc2c1` [Compound 8a], the IC50 [1, 5] was over 50 µM and the IC50 (FL-SMARCA4; [6]) was over 50 µM.

Compound `O=C(Nc1cc(F)c(=O)n(CC(F)F)c1)c1coc(Cl)n1` [Compound 37d] has an IC50 [1, 4] of over 50 µM and an IC50 (FL-SMARCA4; FL-SMARCA4 IC50) of over 50 µM.

In the case of `Cc1cc(C(=O)Nc2cc(F)c(=O)n(CCF)c2)on1` [Compound 250], the IC50 [1, 2] is reported as 25.4 µM and the IC50 (FL-SMARCA4; [3]) is reported as over 50 µM.

Work on `O=C(Nc1cc(F)c(=O)n(CC(F)F)c1)c1cc(C#Cc2cn3ccccc3n2)c(Cl)s1` [Compound 6c] yielded an IC50 [1, 7] of 0.901 µM and an IC50 (FL-SMARCA4; [8]) of 0.679 µM.

In the case of `CCn1cc(NC(=O)c2cc(C#N)c(C#N)s2)ccc1=O` [Compound 181], the IC50 [1, 2] is reported as 0.114 µM and the IC50 (FL-SMARCA4; [3]) is reported as 0.313 µM.

`O=C(Nc1ccc(=O)n(Cc2ccccc2Cl)c1)C1COCCN1` (centres unmarked) [Compound 6a] showed an IC50 [1, 5] of over 50 µM and an IC50 (FL-SMARCA4; [6]) of over 50 µM.

`Cc1c(Cl)cccc1C(=O)Nc1c[nH]c(=O)c(C)c1` [Compound 2b] showed an IC50 ([1]; Table 3b.1, SMARCA2 5 nM, mononucleosome 10 nM) of over 50 µM and an IC50 (FL-SMARCA4; FL-SMARCA4 IC50, Table 3b.2, SMARCA4 5 nM, ATP 250 uM, mononucleosome 10 nM) of over 50 µM.

Work on `Cn1c(C(=O)Nc2ccc(=O)n(CC(F)(F)F)c2)cc(Cl)c1Cl` [Compound 53] yielded an IC50 [1, 2] of 1.48 µM and an IC50 (FL-SMARCA4; [3]) of 16.7 µM.

`N#Cc1cc(C(=O)Nc2cc(F)c(=O)n(CCF)c2)oc1Cl` [Compound 245] gave an IC50 [1, 2] of 2 µM and an IC50 (FL-SMARCA4; [3]) of 12.1 µM.

`CCn1cc(NC(=O)c2sc3ccccc3c2C)ccc1=O` [Compound 40a] was tested, and the IC50 [1, 5] was over 50 µM and the IC50 (FL-SMARCA4; [6]) was over 50 µM.

`CCn1cc(NC(=O)c2cn3cccnc3n2)ccc1=O` [Compound 21a] gave an IC50 [1, 5] of over 50 µM and an IC50 (FL-SMARCA4; [6]) of over 50 µM.

With `CN(C)CCc1cc(NC(=O)c2cc(F)c(Cl)s2)cn(CC(F)F)c1=O` [Compound 17c] the IC50 [1, 7] was over 50 µM and the IC50 (FL-SMARCA4; [8]) was over 50 µM.

For `CCn1cc(NC(=O)c2cc(Cl)c(Cl)n2-c2ccccc2)ccc1=O` [Compound 66], the IC50 [1, 2] was over 50 µM and the IC50 (FL-SMARCA4; [3]) was over 50 µM.

`O=C(Nc1cc(F)c(=O)n(CC(F)F)c1)c1cc(C#Cc2ccncc2)n[nH]1` [Compound 112c] showed an IC50 [1, 7] of over 50 µM and an IC50 (FL-SMARCA4; [8]) of over 50 µM.

With `Cn1cc(NC(=O)c2coc(Br)c2)cc(Cl)c1=O` [Compound 2] the IC50 [1, 2] was 33.2 µM and the IC50 (FL-SMARCA4; [3]) was over 50 µM.
